Experimental data from US10202361B2, “Pyridazinones as herbicides” (E I DU PONT DE NEMOURS AND COMPANY, priority 2014, dated 2019).
Read-outs that look alike come from different tables or passages of the source.

Columns and labels:
Type in all cases: in vivo
[1] = system: pigweed (Amaranthus retroflexus); assay: Test A pre-/postemergence greenhouse herbicide test; conditions: Amaranthus retroflexus, 240 h, 0 to 100 scale (0 no effect, 100 complete control), approx. 10 d, read-out: Plant response rating, Pigweed; for pest or weed control at 125 g/ha: 125 g ai/ha; for pest or weed control at 500 g/ha: 500 g ai/ha
In short: (§1)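 Injury was scored visually on a 0–100 scale (100 = complete control) about 10 d after spraying, relative to untreated plants. Compounds were formulated in solvent plus surfactant and applied as soil spray preemergence or to 2–10 cm, one- to two-leaf seedlings postemergence.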

[2] = system: velvetleaf (Abutilon theophrasti); assay: as above; conditions: Abutilon theophrasti, 240 h, 0 to 100 scale (0 no effect, 100 complete control), approx. 10 d, read-out: Plant response rating, Velvetleaf; for pest or weed control at 125 g/ha: 125 g ai/ha; for pest or weed control at 500 g/ha: 500 g ai/ha
In short: as §1

[3] = system: barnyardgrass (Echinochloa crus-galli); assay: as above; conditions: Echinochloa crus-galli, 240 h, 0 to 100 scale (0 no effect, 100 complete control), approx. 10 d, read-out: Plant response rating, Barnyardgrass; for pest or weed control at 125 g/ha: 125 g ai/ha; for pest or weed control at 500 g/ha: 500 g ai/ha
In short: as §1

[4] = system: foxtail, giant (giant foxtail, Setaria faberii); assay: as above; conditions: Setaria faberi, 240 h, 0 to 100 scale (0 no effect, 100 complete control), approx. 10 d, read-out: Plant response rating, Foxtail, Giant; for pest or weed control at 125 g/ha: 125 g ai/ha; for pest or weed control at 500 g/ha: 500 g ai/ha
In short: as §1

[5] = system: crabgrass, Large (large crabgrass, Digitaria sanguinalis); assay: as above; conditions: Digitaria sanguinalis, 240 h, 0 to 100 scale (0 no effect, 100 complete control), approx. 10 d, read-out: Plant response rating, Crabgrass, Large; for pest or weed control at 125 g/ha: 125 g ai/ha; for pest or weed control at 500 g/ha: 500 g ai/ha
In short: as §1

[6] = system: wheat (Triticum aestivum); assay: as above; conditions: Triticum aestivum, 240 h, 0 to 100 scale (0 no effect, 100 complete control), approx. 10 d, read-out: Plant response rating, Wheat; for plant injury at 125 g/ha: 125 g ai/ha; for plant injury at 500 g/ha: 500 g ai/ha
In short: as §1

[7] = system: morningglory (Ipomoea spp.); assay: as above; conditions: Ipomoea, 240 h, 0 to 100 scale (0 no effect, 100 complete control), approx. 10 d, read-out: Plant response rating, Morningglory; for pest or weed control at 125 g/ha: 125 g ai/ha; for pest or weed control at 500 g/ha: 500 g ai/ha
In short: as §1

corn (Zea mays) = assay: as above; conditions: Zea mays, 240 h, 0 to 100 scale (0 no effect, 100 complete control), approx. 10 d; for Corn plant response rating (crop injury, 0 = no effect, 100 = complete kill) at 125 g/ha: 125 g ai/ha; for Corn plant response rating (crop injury, 0 = no effect, 100 = complete kill) at 500 g/ha: 500 g ai/ha
In short: as §1

[8] = system: oat, wild (wild oat, Avena fatua); assay: Test C pre-/postemergence greenhouse herbicide test
Excerpt: Seeds of plant species selected from blackgrass (Alopecurus myosuroides), bromegrass, downy (downy bromegrass, Bromus tectorum), foxtail, green (green foxtail, Setaria viridis), ryegrass, Italian (Italian ryegrass, Lolium multiflorum), wheat (winter wheat, Triticum aestivum), oat, wild (wild oat, Avena fatua), galium (catchweed bedstraw, Galium aparine), bermudagrass (Cynodon dactylon), surinam grass (Brachiaria decumbens), cocklebur (common cocklebur, Xanthium strumarium), corn (Zea mays), crabgrass, large (large crabgrass, Digitaria sanguinalis), cupgrass, woolly (woolly cupgrass, Eriochloa villosa), foxtail, giant (giant foxtail, Setaria faberii), goosegrass (Eleusine indica), johnsongrass (Sorghum halepense), kochia (Kochia scoparia), lambsquarters (Chenopodium album), morningglory (Ipomoea coccinea), nightshade (eastern black nightshade, Solanum ptycanthum), nutsedge, yellow (yellow nutsedge, Cyperus esculentus), pigweed (Amaranthus retroflexus), ragweed (common ragweed, Ambrosia elatior), soybean (Glycine max), sunflower (common oilseed sunflower, Helianthus annuus), Russian thistle (Salsola kali), barnyardgrass (Echinochloa crus-galli), oilseed rape (Brassica napus), waterhemp (common waterhemp, Amaranthus rudis), and velvetleaf (Abutilon theophrasti) were planted into a blend of loam soil and sand and treated preemergence with test chemicals formulated in a non-phytotoxic solvent mixture which included a surfactant.
At the same time, plants selected from these crop and weed species and also barley (winter barley, Hordeum vulgare), canarygrass (Phalaris minor), windgrass (Apera spica-venti), deadnettle (henbit deadnettle, Lamium amplexicaule), and chickweed (common chickweed, Stellaria media) were planted in pots containing Redi-Earth® planting medium (Scotts Company, 14111 Scottslawn Road, Marysville, Ohio 43041) comprising spaghnum peat moss, vermiculite, wetting agent and starter nutrients and treated with postemergence applications of test chemicals formulated in the same manner. Plants ranged in height from 2 to 18 cm (1- to 4-leaf stage) for postemergence treatments. Treated plants and controls were maintained in a greenhouse for 13 to 15 d, after which time all species were compared to controls and visually evaluated. Plant response ratings, summarized in Table C, are based on a scale of 0 to 100 where 0 is no effect and 100 is complete control. A dash (-) response means no test result.

For Cc1cc(=O)n(-c2ccc(F)cc2)nc1Oc1ccnc(C(F)(F)F)c1 [Compound 14, 2-(4-fluorophenyl)-5-methyl-6-[[2-(trifluoromethyl)-4-pyridinyl]oxy]-3 (2H)-pyridazinone], the pest or weed control at 125 g/ha ([1]; post-emergence, Postemergence) was 100%, the pest or weed control at 500 g/ha ([1]; post-emergence, Postemergence) was 100% and the pest or weed control at 125 g/ha ([1]; pre-emergence, Preemergence) was 100%. The pest or weed control at 500 g/ha ([1]; pre-emergence, Preemergence) was 100%, the pest or weed control at 125 g/ha ([2]; post-emergence, Postemergence) was 80% and the pest or weed control at 500 g/ha ([2]; post-emergence, Postemergence) was 90%. The pest or weed control at 125 g/ha ([2]; pre-emergence, Preemergence) was 30%, the pest or weed control at 500 g/ha ([2]; pre-emergence, Preemergence) was 100% and the pest or weed control at 125 g/ha ([3]; post-emergence, Postemergence) was 80%. For the same molecule, the pest or weed control at 500 g/ha ([3]; post-emergence, Postemergence) was 90%, the pest or weed control at 125 g/ha ([3]; pre-emergence, Preemergence) was 70% and the pest or weed control at 500 g/ha ([3]; pre-emergence, Preemergence) was 100%. It also gave a pest or weed control at 125 g/ha ([4]; post-emergence, Postemergence) of 90%, a pest or weed control at 500 g/ha ([4]; post-emergence, Postemergence) of 90% and a pest or weed control at 125 g/ha ([4]; pre-emergence, Preemergence) of 90%. The pest or weed control at 500 g/ha ([4]; pre-emergence, Preemergence) was 90%, the pest or weed control at 125 g/ha ([5]; post-emergence, Postemergence) was 90% and the pest or weed control at 500 g/ha ([5]; post-emergence, Postemergence) was 90%. It also gave a pest or weed control at 125 g/ha ([5]; pre-emergence, Preemergence) of 90%, a pest or weed control at 500 g/ha ([5]; pre-emergence, Preemergence) of 90% and a plant injury at 125 g/ha ([6]; post-emergence, Postemergence) of 40%. The plant injury at 500 g/ha ([6]; post-emergence, Postemergence) was 70%, the plant injury at 125 g/ha ([6]; pre-emergence, Preemergence) was 10% and the plant injury at 500 g/ha ([6]; pre-emergence, Preemergence) was 60%. It also gave a pest or weed control at 125 g/ha ([7]; post-emergence, Postemergence) of 90%, a pest or weed control at 500 g/ha ([7]; post-emergence, Postemergence) of 100% and a pest or weed control at 125 g/ha ([7]; pre-emergence, Preemergence) of 80%. The pest or weed control at 500 g/ha ([7]; pre-emergence, Preemergence) was 100%, the Corn plant response rating (crop injury, 0 = no effect, 100 = complete kill) at 125 g/ha (corn (Zea mays); post-emergence, Postemergence) was 50% and the Corn plant response rating (crop injury, 0 = no effect, 100 = complete kill) at 500 g/ha (corn (Zea mays); post-emergence, Postemergence) was 70%. It also gave a Corn plant response rating (crop injury, 0 = no effect, 100 = complete kill) at 125 g/ha (corn (Zea mays); pre-emergence, Preemergence) of 0%, a Corn plant response rating (crop injury, 0 = no effect, 100 = complete kill) at 500 g/ha (corn (Zea mays); pre-emergence, Preemergence) of 50% and a Plant response rating ([8]; Postemergence, 31 g ai/ha) of 20. The Plant response rating ([8]; Postemergence, 62 g ai/ha) was 30, the Plant response rating ([8]; Postemergence, 125 g ai/ha) was 30 and the Plant response rating ([8]; Postemergence, 250 g ai/ha) was 30. It also gave a Plant response rating ([8]; Preemergence, 31 g ai/ha) of 0, a Plant response rating ([8]; Preemergence, 62 g ai/ha) of 0 and a Plant response rating ([8]; Preemergence, 125 g ai/ha) of 65. For the same molecule, the Plant response rating ([8]; Preemergence, 250 g ai/ha) was 65.
